# From article PMC4769088, “Antifungal Activity and Action Mechanism of Histatin 5-Halocidin Hybrid Peptides against Candida ssp” (PLoS ONE, 2016)
# Where two headings read alike, the source gives them in different places. Where a SMILES comes first, the peptide text is derived from it. Bridges are numbered along the chain shown (N, C = ends). Roman numbers before positions name the chains, in order. Where no end group is shown, it is not given here.
# Tests used:
# [1] = test system: C. guilliermondi CCARM 14019; assay type: cell-based
# Method: (§1) To determine the candidacidal activity of the peptides, we used Candida strains obtained from the Culture collection of antimicrobial resistant microbes at Seoul Women’s University in Korea. These included three Candida albicans (CCARM 14020, 14021, 14022), Candida guillermondi and Candida tropicalis. In addition, Candida albicans SC5413 was kindly provided by Dr Jeong-Yoon Kim at the Department of Microbiology & Molecular Biology, Chungnam University, Korea. Yeast were cultured overnight at 30°C in 10 ml of yeast extract-peptone-dextrose (YPD) broth (Qbiogene), then diluted in 10 ml of YPD broth to OD600 = 0.2 and grown for an additional 4 h with shaking at 30°C until OD600 = 0.8 in order to obtain mid-log phase cultures. The peptides (Hst 5, P113, HHP1, HHP2, PH1, PH2, di-PH1, di-PH2, WP1, di-WP2, di-15Hc and di-18Hc) in this study were synthesized by using standard solid-phase synthesis protocols and were purified by reversed-phase high-performance liquid chromatography at Anygen Inc. (Korea). FITC-labeled peptides (F-Hst5, F-P113, F-HHP1, F-di-PH2, F-di-WP2 and F-di-18Hc) were also synthesized by 6-aminohexnoic acid linker at Anygen (Korea) for confocal experiments.
# (§2) The candidacidal activities of the peptides were tested by using standard microdilution plate assays, radial diffusion assays and broth dilution assay slightly modified from the procedure recommended by the National Committee for Clinical Laboratory Standards. For the candidacidal assays, C. albicans cells were grown in YPD medium and washed twice with 10 mM sodium phosphate buffer (NaPB; Na2HPO4, NaH2PO4, pH 7.4). The cells (1 x 10^6) were then mixed with different concentrations of peptides and incubated at 30°C with constant shaking for 60 min. For energy depletion experiments, cells were pre-incubated with 10 mM NaPB containing 5 mM NaN3 at 30°C for 60 min before the addition of peptides. The cell suspensions were diluted in 10 mM NaPB and aliquots of 500 cells were spread onto YPD agar plates then incubated for 24 h at 30°C to visualize the surviving colonies. Cell survival was expressed as a percentage of that for the control, and the loss of viability was calculated as [1 x (number of colonies from peptide-treated cells/number of colonies from control cells)] x 100. Candidacidal assays were performed in triplicate. For the radial diffusion assay, C. albicans cells were grown in YPD medium overnight and washed twice with 10 mM NaPB. Washed yeast-phase C. albicans cells (1 x 10^6 CFU) were trapped in thin underlay gels containing 9 mM sodium phosphate, 1 mM sodium citrate buffer, 1% (wt/vol) agarose (A6013; Sigma), and 0.3 mg of Sabouraud dextrose broth (Difco)/ml. After incubation at 37°C for 3 h, a 10 ml overlay gel of 1% agarose and 6% Sabouraud dextrose broth was poured on the underlay gel and then the plates were incubated overnight at 37°C. The clear-zone diameters were measured to the nearest 0.1 mm and graphed against the peptide concentration. Zone diameters were expressed in units (0.1 mm = 1 unit). For the broth dilution assay, the Candida strains were cultured in LYM broth for 18 h at 30°C. The numbers of yeasts were counted using a hemocytometer. Stock peptide solutions were prepared to a concentration of 320 μg/ml in distilled water, and were then serially diluted twofold, to 5 μg/ml. 100 μl aliquots of the diluted culture media containing candida cells (1 x 10^3) were dispensed into the wells of 96-well polypropylene microtiter plates (Costar 3879, Corning, NY), to which peptide solution (11 μl) was then added. In the experiments conducted to assess the candidacidal activity of peptides in the presence of salt, we used LYM supplemented with 150 mM NaCl for the culture medium, which was mixed with the peptide solution. The antifungal activities were evaluated after 24 h of incubation at 30°C by the observation of visible turbidity the wells. […]
# [2] = test system: C. guilliermondi CCARM 14018; assay type: cell-based
# Method: as §1, §2
# [3] = test system: Candida cells; test: ROS production (DCFH-DA fluorometric assay); assay type: cell-based, Candida albicans; settings: 32 μg/ml peptide, 120 min, 10 μM DCFH-DA, ex 485 / em 530 nm
# Method: The amount of ROS produced by Candida cells treated with peptides was measured by a fluorometric assay with DCFHDA as described earlier. Briefly, the cells were adjusted to an OD600 of 1 in 10 ml of NaPB and centrifuged at 5000 ×g for 10 min. The cell pellet was then resuspended in NaPB and treated with peptides alone or with ascorbic acid. After the addition of 10 μM 2`,7`dichlorofluorescein diacetate (DCFH-DA), the fluorescence intensity of the induced ROS production was recorded every 10 min at excitation and emission wavelengths of 485 nm and 530 nm, respectively, in a Perkin Elmer 2030 Reader (Victor X3).  Fig 7 The effect of peptides on ROS generation. Time-dependency of DCF fluorescence as a measure of ROS generation (A) and killing activity (B) were determined in Candida cells treated with peptides (32 μg/ml) or peptides + Ascorbic acid (200 μg/ml) by Perkin Elmer 2030 reader (VictorX 3) and colony count assay, respectively. The fluorescence obtained with the cells treated with 10 mM of H2O2 served as positive control and the cells without peptide served as negative control. The fluorescent intensity of DCF was recorded every 10 min for 120 min at excitation and emission wavelengths of 485 and 530 nm, respectively.
# [4] = test system: C. albicans strains; test: Broth dilution assay (MIC), C. albicans strains; assay type: cell-based, Candida albicans; settings: for killing activities against C. albicans strains in 150 mM salt: 150 mM NaCl; for decrease of killing activities in 150 mM salt: 150 mM NaCl versus no salt, C. albicans strains
# Method: as §1
# as §2, with “100 μl aliquots of the diluted culture media containing candida cells (1 x 10^3) were dispensed into the wells of 96-well polypropylene microtiter plates (Costar 3879, Corning, NY), to which peptide solution (11 μl) was then added. In the experiments conducted to assess the candidacidal activity of peptides in the presence of salt, we used LYM supplemented with 150 mM NaCl for the culture medium, which was mixed with the peptide solution.” left out
# [5] = NaCl 150 mM, LYM supplemented with 150 mM NaCl, 24 h at 30°C
compound,measurement,setting,value
"C[C@H](NC(=O)[C@H](Cc1c[nH]cn1)NC(=O)[C@H](CO)NC(=O)[C@@H](N)CC(=O)O)C(=O)N[C@@H](CCCCN)C(=O)N[C@@H](CCCNC(=N)N)C(=O)N[C@@H](Cc1c[nH]cn1)C(=O)N[C@@H](Cc1c[nH]cn1)C(=O)NCC(=O)N[C@@H](Cc1ccc(O)cc1)C(=O)N[C@@H](CCCCN)C(=O)N[C@@H](CCCNC(=N)N)C(=O)N[C@@H](CCCCN)C(=O)N[C@@H](Cc1ccccc1)C(=O)N[C@@H](Cc1c[nH]cn1)C(=O)N[C@@H](CCC(=O)O)C(=O)N[C@@H](CCCCN)C(=O)N[C@@H](Cc1c[nH]cn1)C(=O)N[C@@H](Cc1c[nH]cn1)C(=O)N[C@@H](CO)C(=O)N[C@@H](Cc1c[nH]cn1)C(=O)N[C@@H](CCCNC(=N)N)C(=O)NCC(=O)N[C@@H](Cc1ccc(O)cc1)C(=O)O [Hst 5, Histatin 5]",MICs,"[1]; CCARM 14019, 24 h",2 to 4 µg/mL
same,MICs,[1]; [5],32< μg/ml
same,MICs,"[2]; CCARM 14018, 24 h",1 to 2 µg/mL
same,MICs,[2]; [5],32< μg/ml
same,DCF fluorescence intensity (ROS generation),[3],constant increase in fluorescence intensity
same,killing activities against C. albicans strains in 150 mM salt,[4],abolished
"CC(C)C[C@H](NC(=O)CNC(=O)[C@H](Cc1c[nH]cn1)NC(=O)[C@H](Cc1c[nH]cn1)NC(=O)[C@H](CC(C)C)NC(=O)[C@H](CC(C)C)NC(=O)[C@H](C)NC(=O)[C@H](CC(N)=O)NC(=O)[C@H](CC(C)C)NC(=O)[C@@H](N)Cc1c[nH]c2ccccc12)C(=O)N[C@@H](CC(N)=O)C(=O)N[C@@H](CSSC[C@H](NC(=O)[C@H](CC(N)=O)NC(=O)[C@H](CC(C)C)NC(=O)CNC(=O)[C@H](Cc1c[nH]cn1)NC(=O)[C@H](Cc1c[nH]cn1)NC(=O)[C@H](CC(C)C)NC(=O)[C@H](CC(C)C)NC(=O)[C@H](C)NC(=O)[C@H](CC(N)=O)NC(=O)[C@H](CC(C)C)NC(=O)[C@@H](N)Cc1c[nH]c2ccccc12)C(=O)N[C@@H](C)C(=O)N[C@@H](CCCCN)C(=O)NCC(=O)N[C@H](C(=O)N[C@@H](CC(C)C)C(=O)N[C@@H](C)C(N)=O)C(C)C)C(=O)N[C@@H](C)C(=O)N[C@@H](CCCCN)C(=O)NCC(=O)N[C@H](C(=O)N[C@@H](CC(C)C)C(=O)N[C@@H](C)C(N)=O)C(C)C [di-18Hc, reference compound] (I: H-WLNALLHHGLNCAKGVLA-NH2 / II: H-WLNALLHHGLNCAKGVLA-NH2; disulfide I:12-II:12 (inferred); N-terminus assumed)",MICs,"[1]; CCARM 14019, 24 h",4 to 8 µg/mL
same,DCF fluorescence intensity (ROS generation),[3],little fluorescence
same,decrease of killing activities in 150 mM salt,[4],4-8 fold
CC(C)C[C@H](NC(=O)CNC(=O)[C@H](Cc1c[nH]cn1)NC(=O)[C@H](Cc1c[nH]cn1)NC(=O)[C@H](CCCNC(=N)N)NC(=O)[C@H](CCCCN)NC(=O)[C@H](C)N)C(=O)N[C@@H](CC(N)=O)C(=O)N[C@@H](CSSC[C@H](NC(=O)[C@H](CC(N)=O)NC(=O)[C@H](CC(C)C)NC(=O)CNC(=O)[C@H](Cc1c[nH]cn1)NC(=O)[C@H](Cc1c[nH]cn1)NC(=O)[C@H](CCCNC(=N)N)NC(=O)[C@H](CCCCN)NC(=O)[C@H](C)N)C(=O)N[C@@H](C)C(=O)N[C@@H](CCCCN)C(=O)N[C@@H](Cc1ccccc1)C(=O)N[C@@H](Cc1c[nH]cn1)C(N)=O)C(=O)N[C@@H](C)C(=O)N[C@@H](CCCCN)C(=O)N[C@@H](Cc1ccccc1)C(=O)N[C@@H](Cc1c[nH]cn1)C(N)=O [di-PH2] (I: H-AKRHHGLNCAKFH-NH2 / II: H-AKRHHGLNCAKFH-NH2; disulfide I:9-II:9 (inferred); N-terminus assumed),MICs,[2]; [5],32< μg/ml
same,DCF fluorescence intensity (ROS generation),[3],constant increase in fluorescence intensity
same,killing activities against C. albicans strains in 150 mM salt,[4],abolished
CC(C)C[C@H](NC(=O)[C@@H](N)Cc1c[nH]c2ccccc12)C(=O)N[C@@H](CC(N)=O)C(=O)N[C@@H](C)C(=O)N[C@@H](CCCCN)C(=O)N[C@@H](CCCNC(=N)N)C(=O)N[C@@H](Cc1c[nH]cn1)C(=O)N[C@@H](Cc1c[nH]cn1)C(=O)NCC(=O)N[C@@H](Cc1ccc(O)cc1)C(=O)N[C@@H](CCCCN)C(=O)N[C@@H](CSSC[C@H](NC(=O)[C@H](CCCCN)NC(=O)[C@H](Cc1ccc(O)cc1)NC(=O)CNC(=O)[C@H](Cc1c[nH]cn1)NC(=O)[C@H](Cc1c[nH]cn1)NC(=O)[C@H](CCCNC(=N)N)NC(=O)[C@H](CCCCN)NC(=O)[C@H](C)NC(=O)[C@H](CC(N)=O)NC(=O)[C@H](CC(C)C)NC(=O)[C@@H](N)Cc1c[nH]c2ccccc12)C(=O)N[C@@H](CCCCN)C(=O)N[C@@H](Cc1ccccc1)C(=O)N[C@@H](Cc1c[nH]cn1)C(N)=O)C(=O)N[C@@H](CCCCN)C(=O)N[C@@H](Cc1ccccc1)C(=O)N[C@@H](Cc1c[nH]cn1)C(N)=O [di-WP2] (I: H-WLNAKRHHGYKCKFH-NH2 / II: H-WLNAKRHHGYKCKFH-NH2; disulfide I:12-II:12 (inferred); N-terminus assumed),MICs,"[1]; CCARM 14019, 24 h",4 to 8 µg/mL
same,MICs,"[2]; CCARM 14018, 24 h",2 to 4 µg/mL
same,DCF fluorescence intensity (ROS generation),[3],little fluorescence
same,decrease of killing activities in 150 mM salt,[4],4-8 fold
AKRHHGYKRKFH-NH2 [P113],MICs,"[1]; CCARM 14019, 24 h",0.5 to 1 µg/mL
same,MICs,[1]; [5],32< μg/ml
same,MICs,"[2]; CCARM 14018, 24 h",0.5 to 1 µg/mL
same,MICs,[2]; [5],32< μg/ml
same,DCF fluorescence intensity (ROS generation),[3],constant increase in fluorescence intensity
same,killing activities against C. albicans strains in 150 mM salt,[4],abolished
